Data reported in patent US9056876B2, “Substituted 1H-pyrazolo[3′,4′,4,5]thieno[2,3-b]pyridin-3-amine analogs as positive allosteric modulators of the muscarinic acetylcholine receptor M4” (VANDERBILT UNIVERSITY, priority 2011, dated 2015).

Target: T1, mAChR M4 (UniProt P08173)
T1 construct: hM1 and hM4 cDNAs were purchased from Missouri S&T cDNA Resource
T1 sequence (P08173 1-479): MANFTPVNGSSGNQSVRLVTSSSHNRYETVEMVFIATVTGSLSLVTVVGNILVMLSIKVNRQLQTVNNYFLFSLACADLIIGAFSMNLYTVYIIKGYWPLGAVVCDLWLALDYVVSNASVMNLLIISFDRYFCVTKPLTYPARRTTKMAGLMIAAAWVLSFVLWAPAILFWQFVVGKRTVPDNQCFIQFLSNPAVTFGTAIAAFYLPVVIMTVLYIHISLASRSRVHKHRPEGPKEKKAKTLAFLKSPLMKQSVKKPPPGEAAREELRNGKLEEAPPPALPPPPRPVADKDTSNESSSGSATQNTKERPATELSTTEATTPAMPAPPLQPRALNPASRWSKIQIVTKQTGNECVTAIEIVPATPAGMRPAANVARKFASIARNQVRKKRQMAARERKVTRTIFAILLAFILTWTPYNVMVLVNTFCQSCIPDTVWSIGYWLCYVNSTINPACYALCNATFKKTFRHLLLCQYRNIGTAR
Test: mAChR M4 cell-based functional assay (calcium mobilization, Fluo-4, FDSS)
Conditions: for Emax (%)*: % ACh maximum at 30 μM; for pEC50: positive allosteric modulator activity, EC20 acetylcholine response; for pEC50 / EC50: CHO-K1 cells; for EC50: positive allosteric modulator activity: concentration-dependent increase in the EC20 acetylcholine response, >10 μM estimated for low potency (no plateau)
From the text: Chinese hamster ovary (CHO-K1) cells stably expressing rat (r)M1 were purchased from the American Type Culture Collection and cultured according to their indicated protocol. CHO cells stably expressing human (h)M2, hM3, and hM5 were described previously (Levey A I, et al., (1991) J Neurosci 11:3218-3226.); hM1 and hM4 cDNAs were purchased from Missouri S&T cDNA Resource; rM4 cDNA was provided by T. I. Bonner (National Institutes of Health, Bethesda, Md.). rM2 and rM3 were cloned from a rat brain cDNA library and sequence verified. hM1, rM2, rM3, hM4, and rM4 cDNAs were used to stably transfect CHO-K1 cells purchased from the American Type Culture Collection using Lipofectamine-2000. To make stable rM2, hM2, rM3, hM4, and rM4 cell lines for use in calcium mobilization assays, these cells also were stably transfected with a chimeric G-protein (Gqi5) (provided by B. R. Conklin, University of California, San Francisco) using Lipofectamine 2000. rM1, hM1, rM3, hM3, rM5, and hM5 cells were grown in Ham's F-12 medium containing 10% heat-inactivated fetal bovine serum (FBS), 20 mM HEPES, and 50 µg/mL G418 sulfate. rM2-Gqi5, hM2-Gqi5, and hM4-Gqi5 cells were grown in the same medium also containing 500 µg/mL Hygromycin B. Stable rM4-Gqi5 cells were grown in DMEM containing 10% heat-inactivated FBS, 20 mM HEPES, 400 µg/mL G418 sulfate, and 500 µg/mL Hygromycin B.
For high throughput measurement of agonist-evoked increases in intracellular calcium, CHO-K1 cells stably expressing the target muscarinic receptor were plated in growth medium lacking G418 and hygromycin at 15,000 cells/20 μL/well in Greiner 384-well black-walled, tissue culture (TC)-treated, clear-bottom plates (VWR). Cells were incubated overnight at 37° C. and 5% CO2. The next day, cells were washed using an ELX 405 (BioTek) with four washes (80 μL) of assay buffer then aspirated to 20 μL. Next, […] of 16 μM Fluo-4/acetoxymethyl ester (Invitrogen, Carlsbad, Calif.) prepared as a 2.3 mM stock in DMSO and mixed in a 1:1 ratio with 10% (w/v) Pluronic F-127 and diluted in assay buffer was added to the wells and the cell plates were incubated for 50 min at 37° C. and 5% CO2. Dye was removed by washing with the ELX 405 (four 80 μL washes of assay buffer) then aspirated to 20 μL. Compound master plates were formatted in an 11 point CRC format (1:3 dilutions) in 100% DMSO with a starting concentration of 10 mM using the BRAVO liquid handler (Agilent). Test compound CRCs were then transferred to daughter plates (240 nL) using the Echo acoustic plate reformatter (Labcyte, Sunnyvale, Calif.) and then diluted into assay buffer (40 μL) to a 2× stock using a Thermo Fisher Combi (Thermo Fisher Scientific, Waltham, Mass.).
Calcium flux was measured using the Functional Drug Screening System (FDSS) 6000 (Hamamatsu Corporation, Tokyo, Japan) as an increase in the fluorescent static ratio. Compounds were applied to cells (20 μL, 2×) using the automated system of the FDSS 6000 at 4 s into the 300 s protocol and the data were collected at 1 Hz. At 144 s into the 300 s protocol, 10 μL of an EC20 concentration of the muscarinic receptor agonist acetylcholine was added (5×), followed by the addition of 12 μL an EC80 concentration of acetylcholine at the 230 s time point (5×). Agonist activity was analyzed as a concentration-dependent increase in calcium mobilization upon compound addition. Positive allosteric modulator activity was analyzed as a concentration-dependent increase in the EC20 acetylcholine response. Antagonist activity was analyzed as a concentration-dependent decrease in the EC80 acetylcholine response. Concentration-response curves were generated using a four-parameter logistical equation in XLfit curve fitting software (IDBS, Bridgewater, N.J.) for Excel (Microsoft, Redmond, Wash.) or Prism (GraphPad Software, Inc., San Diego, Calif.). […]

For `Cc1cc(C)c2c(n1)sc1c(N)n[nH]c12` [Compound 1, 6,8-dimethyl-1H-pyrazolo[3′,4′:4,5]thieno[2,3-b]pyridin-3-amine], the “Emax (%)*” value was 27%, the pEC50 was under 5.00 and the EC50 was over 10000 nM.
In the case of `Cc1cc(C)c2c(n1)sc1c(NC(=O)C3CC3)n[nH]c12` [Compound 2, N-(6,8-dimethyl-1H-pyrazolo[3′,4′:4,5]thieno[2,3-b]pyridin-3-yl)cyclopropanecarboxamide], the “Emax (%)*” value is reported as 36%, the pEC50 is reported as 5.42 and the EC50 is reported as 3840 nM.
For `Cc1cc(C)c2c(n1)sc1c(NCCC(C)C)n[nH]c12` [Compound 3, N-isopentyl-6,8-dimethyl-1H-pyrazolo[3′,4′:4,5]thieno[2,3-b]pyridin-3-amine], the “Emax (%)*” value was 46%, the pEC50 was 5.91 and the EC50 was 1240 nM.
With `Cc1cc(C)c2c(n1)sc1c(NCc3ccc(F)cc3)n[nH]c12` [Compound 4, N-(4-fluorobenzyl)-6,8-dimethyl-1H-pyrazolo[3′,4′:4,5]thieno[2,3-b]pyridin-3-amine] the “Emax (%)*” value was 54%, the pEC50 was 5.99 and the EC50 was 1030 nM.
For `Cc1cc(C)c2c(n1)sc1c(NCc3ccccc3)n[nH]c12` [Compound 5, N-benzyl-6,8-dimethyl-1H-pyrazolo[3′,4′:4,5]thieno[2,3-b]pyridin-3-amine], the “Emax (%)*” value was 58%, the pEC50 was 5.97 and the EC50 was 1070 nM.
`COc1ccc(CNc2n[nH]c3c2sc2nc(C)cc(C)c23)cc1` [Compound 6, N-(4-methoxybenzyl)-6,8-dimethyl-1H-pyrazolo[3′,4′:4,5]thieno[2,3-b]pyridin-3-amine] was tested, and the “Emax (%)*” value was 58%, the pEC50 was 5.94 and the EC50 was 1150 nM.
`Cc1cc(C)c2c(n1)sc1c(NCC3CC3)n[nH]c12` [Compound 7, N-(cyclopropylmethyl)-6,8-dimethyl-1H-pyrazolo[3′,4′:4,5]thieno[2,3-b]pyridin-3-amine] was tested, and the “Emax (%)*” value was 68%, the pEC50 was 5.90 and the EC50 was 1260 nM.
For `Cc1cc(C)c2c(n1)sc1c(NCC3CC3)nn(C(=O)OC(C)(C)C)c12` [Compound 8, tert-butyl 3-((cyclopropylmethyl)amino)-6,8-dimethyl-1H-pyrazolo[3′,4′:4,5]thieno[2,3-b]pyridine-1-carboxylate], the “Emax (%)*” value was 61%, the pEC50 was 5.62 and the EC50 was 2410 nM.
`Cc1cc(C)c2c(n1)sc1c(NCc3ccccc3F)n[nH]c12` [Compound 9, N-(2-fluorobenzyl)-6,8-dimethyl-1H-pyrazolo[3′,4′:4,5]thieno[2,3-b]pyridin-3-amine] was tested, and the “Emax (%)*” value was 43%, the pEC50 was 5.98 and the EC50 was 1050 nM.
In the case of `Cc1cc(C)c2c(n1)sc1c(NC3CCCC3)n[nH]c12` [Compound 10, N-cyclopentyl-6,8-dimethyl-1H-pyrazolo[3′,4′:4,5]thieno[2,3-b]pyridin-3-amine], the “Emax (%)*” value is reported as 55%, the pEC50 is reported as 5.76 and the EC50 is reported as 1740 nM.
For `Cc1cc(C)c2c(n1)sc1c(NC(C)C)n[nH]c12` [Compound 11, N-isopropyl-6,8-dimethyl-1H-pyrazolo[3′,4′:4,5]thieno[2,3-b]pyridin-3-amine], the “Emax (%)*” value was 59%, the pEC50 was 5.62 and the EC50 was 2410 nM.
In the case of `Cc1cc(C)c2c(n1)sc1c(NC3CCSCC3)n[nH]c12` [Compound 12, 6,8-dimethyl-N-(tetrahydro-2H-thiopyran-4-yl)-1H-pyrazolo[3′,4′:4,5]thieno[2,3-b]pyridin-3-amine], the “Emax (%)*” value is reported as 38%, the pEC50 is reported as 5.36 and the EC50 is reported as 4390 nM.
`Cc1cc(C)c2c(n1)sc1c(NC3CCOCC3)n[nH]c12` [Compound 13, 6,8-dimethyl-N-(tetrahydro-2H-pyran-4-yl)-1H-pyrazolo[3′,4′:4,5]thieno[2,3-b]pyridin-3-amine] was tested, and the “Emax (%)*” value was 37%, the pEC50 was 5.14 and the EC50 was 7320 nM.
With `Cc1nc2sc3c(NCC4CC4)n[nH]c3c2c(C)c1Cl` [Compound 14, 7-chloro-N-(cyclopropylmethyl)-6,8-dimethyl-1H-pyrazolo[3′,4′:4,5]thieno[2,3-b]pyridin-3-amine] the “Emax (%)*” value was 69%, the pEC50 was 5.80 and the EC50 was 1600 nM.
In the case of `CCNc1n[nH]c2c1sc1nc(C)cc(C)c12` [Compound 15, N-ethyl-6,8-dimethyl-1H-pyrazolo[3′,4′:4,5]thieno[2,3-b]pyridin-3-amine], the “Emax (%)*” value is reported as 65%, the pEC50 is reported as 5.68 and the EC50 is reported as 2100 nM.
With `Cc1nc2sc3c(NCc4ccccc4)n[nH]c3c2c(C)c1Cl` [Compound 16, N-benzyl-7-chloro-6,8-dimethyl-1H-pyrazolo[3′,4′:4,5]thieno[2,3-b]pyridin-3-amine] the “Emax (%)*” value was 32%, the pEC50 was under 5.00 and the EC50 was over 10000 nM.
With `Cc1nc2sc3c(NCc4ccccc4)nn(C)c3c2c(C)c1Cl` [Compound 17, N-benzyl-7-chloro-1,6,8-trimethyl-1H-pyrazolo[3′,4′:4,5]thieno[2,3-b]pyridin-3-amine] the “Emax (%)*” value was 39%, the pEC50 was under 5.00 and the EC50 was over 10000 nM.
In the case of `COc1ccc(CNc2nn(C)c3c2sc2nc(C)c(Cl)c(C)c23)cc1` [Compound 18, 7-chloro-N-(4-methoxybenzyl)-1,6,8-trimethyl-1H-pyrazolo[3′,4′:4,5]thieno[2,3-b]pyridin-3-amine], the “Emax (%)*” value is reported as 51%, the pEC50 is reported as under 5.00 and the EC50 is reported as over 10000 nM.
For `Cc1nc2sc3c(NCC4CC4)nn(C)c3c2c(C)c1Cl` [Compound 19, 7-chloro-N-(cyclopropylmethyl)-1,6,8-trimethyl-1H-pyrazolo[3′,4′:4,5]thieno[2,3-b]pyridin-3-amine], the “Emax (%)*” value was 65%, the pEC50 was 6.59 and the EC50 was 260 nM.
With `Cc1nc2sc3c(NCc4ccco4)n[nH]c3c2c(C)c1Cl` [Compound 20, 7-chloro-N-(furan-2-ylmethyl)-6,8-dimethyl-1H-pyrazolo[3′,4′:4,5]thieno[2,3-b]pyridin-3-amine] the “Emax (%)*” value was 48%, the pEC50 was 5.85 and the EC50 was 1400 nM.
In the case of `Cc1nc2sc3c(NCc4cccs4)n[nH]c3c2c(C)c1Cl` [Compound 21, 7-chloro-6,8-dimethyl-N-(thiophen-2-ylmethyl)-1H-pyrazolo[3′,4′:4,5]thieno[2,3-b]pyridin-3-amine], the “Emax (%)*” value is reported as 39%, the pEC50 is reported as under 5.00 and the EC50 is reported as over 10000 nM.
For `Cc1nc2sc3c(NCc4ccc(F)cc4)nn(C)c3c2c(C)c1Cl` [Compound 22, 7-chloro-N-(4-fluorobenzyl)-1,6,8-trimethyl-1H-pyrazolo[3′,4′:4,5]thieno[2,3-b]pyridin-3-amine], the “Emax (%)*” value was 57%, the pEC50 was under 5.00 and the EC50 was over 10000 nM.
